Experimental data from publication PMC7245562 (Cell chemical biology, 2020).
Converted amounts (≈) assume the structure as drawn.

Experiments:
recombinant hsDHFR = target: T1, recombinant hsDHFR (Homo sapiens, UniProt P00374); assay: Human DHFR; format: biochemical; conditions: 1 μM compound
T1 sequence (P00374 1-187): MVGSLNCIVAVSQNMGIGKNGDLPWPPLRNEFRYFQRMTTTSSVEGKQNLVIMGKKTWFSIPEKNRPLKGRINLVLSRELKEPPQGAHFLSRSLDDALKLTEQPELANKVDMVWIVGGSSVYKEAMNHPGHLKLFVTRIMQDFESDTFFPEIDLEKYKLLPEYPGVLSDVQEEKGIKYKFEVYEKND

[1] = target: T2, R12Y/G67S/Y100I ecDHFR fused to yellow fluorescent protein (ecDHFR.YFP) (Escherichia coli, UniProt P0ABQ4, G67S/R12Y/Y100I); format: cell-based; conditions: for stabilization of ecDHFR.YFP: 10 μM final concentration, 24 h treatment; for dose-dependent stabilization of ecDHFR.YFP: dose-response, 24 h
[2] = target: T3, ecDHFR DD firefly luciferase (ecDHFR.FLuc) (Escherichia coli, UniProt P0ABQ4, G67S/R12Y/Y100I); format: in vivo, BALB/c mice; conditions: 1 mg (50 mg/kg) oral gavage, 6 h, mean ± SEM
[3] = target: R12Y/M16L/G67S/Y100I ecDHFR.YFP (Escherichia coli, UniProt P0ABQ4, G67S/M16L/R12Y/Y100I); format: cell-based; conditions: 24 h, vs control ecDHFR DD
[4] = target: R12Y/F31L/G67S/Y100I ecDHFR.YFP (Escherichia coli, UniProt P0ABQ4, F31L/G67S/R12Y/Y100I); format: cell-based; conditions: 24 h, vs control ecDHFR DD
[5] = target: T3, ecDHFR DD firefly luciferase (ecDHFR.FLuc); format: in vivo, BALB/c mice; conditions: 1 mg (50 mg/kg) oral gavage, 6 h, mean ± SEM; remark: listed apart in the source
[6] = target: R12Y/G67S/I94L/Y100I ecDHFR.YFP (Escherichia coli, UniProt P0ABQ4, G67S/I94L/R12Y/Y100I); format: cell-based; conditions: 24 h, vs control ecDHFR DD
[7] = target: I5F/R12Y/G67S/Y100I ecDHFR.YFP (Escherichia coli, UniProt P0ABQ4, G67S/I5F/R12Y/Y100I); format: cell-based; conditions: 24 h, vs control ecDHFR DD
ecDHFR.YFP = ecDHFR.YFP (Escherichia coli, UniProt P0ABQ4, G67S/R12Y/Y100I); format: cell-based; conditions: for stabilization of ecDHFR after washout: 48 h post washout; for "Off" kinetics compared with TMP: 1 and 10 μM
[8] = test system: BW25113 wild-type E. coli; assay: Bacterial growth assay, Gram-negative E. coli; conditions: Escherichia coli, BW25113, read-out: minimal inhibitory concentration [MIC]
RN4220 S. aureus = assay: Bacterial growth assay, Gram-positive S. aureus; format: cell-based; conditions: concentrations up to 50 μM
[9] = target: T2, R12Y/G67S/Y100I ecDHFR fused to yellow fluorescent protein (ecDHFR.YFP); format: cell-based; conditions: 5 μM, 24 h
Iba1(+) microglia = assay: Iba1; format: in vivo, BALB/c mice; conditions: 1 mg per day for 7 days, oral gavage

CC1(C)N=C(N)N=C(N)N1OCCCOc1cc(Cl)c(Cl)cc1Cl [WR99210]
inhibition of hsDHFR activity (recombinant hsDHFR): intermediately inhibited

Cc1nc2ccc(CN(C)c3ccc(C(=O)N[C@@H](CCC(=O)O)C(=O)O)s3)cc2c(=O)[nH]1 [raltitrexed]
stabilization of ecDHFR.YFP [1]: did not allow for stabilization

Nc1ncc(C=O)c(N)n1 [2,4-DAP-5C, 2,4-diaminopyrimidine-5-carbaldehyde]
stabilization of ecDHFR.YFP [1]: insufficient to stabilize

Nc1nc(N)c2ccccc2n1 [2,4-DAQ, 2,4-diaminoquinazoline]
fold change in bioluminescent signal, liver [2]: 5.3 ± 2.1 fold | effect of Met16 (M16L) mutation on stabilization [3]: did not significantly disrupt | responsiveness to stabilization, Phe31 (F31L) mutant [4]: eliminated all responsiveness | fold change in luminescence after treatment, eye [5]: 1.6 ± 0.3 fold | responsiveness to stabilization, Ile94 (I94L) mutant [6]: eliminated all responsiveness | responsiveness to stabilization, Ile5 (I5F) mutant [7]: eliminated all responsiveness

Nc1nc2ccccc2c(=O)[nH]1 [2-AQ-4O, 2-amino-3H-quinazolin-4-one]
stabilization of ecDHFR.YFP [1]: did not allow for stabilization

C#CCC(Cc1cnc2nc(N)nc(N)c2n1)c1ccc(C(=O)N[C@@H](CCC(=O)O)C(=O)O)cc1 (stereo partly shown) [Pralatrexate]
fold change in bioluminescent signal, liver [2]: 7.1 ± 1.3 fold | inhibition of hsDHFR activity (recombinant hsDHFR): completely inhibited | stabilization of ecDHFR after washout (ecDHFR.YFP): continued to stabilize ecDHFR | time of peak ecDHFR.YFP fluorescence (ecDHFR.YFP; all concentrations used (0.1, 1, 10 μM)): 48 h | dose-dependent stabilization of ecDHFR.YFP [1]: readily stabilized | fold change in luminescence after treatment, eye [5]: 3.5 ± 0.7 fold

COc1ccc(Cc2cnc(N)nc2N)cc1OC [diaveridine]
"Off" kinetics compared with TMP (ecDHFR.YFP): noticeably quicker | MIC [8]: ~16.6 µM (≈ 4.32 µg/mL)

Nc1nc(N)c2nc(-c3cccc(Cl)c3)c(N)nc2n1 [Epiblastin A]
S. aureus growth inhibition (RN4220 S. aureus): did not completely inhibit growth | inhibition of hsDHFR activity (recombinant hsDHFR): intermediately inhibited

Nc1nc2[nH]cc(CCc3ccc(C(=O)N[C@@H](CCC(=O)O)C(=O)O)cc3)c2c(=O)[nH]1 [pemetrexed]
stabilization of ecDHFR.YFP [1]: did not allow for stabilization

Cc1cc(/C=C/c2ccc3cc(N(C)C)ccc3[n+]2C)c(C)n1-c1ccccc1 [pyrvinium pamoate]
hit follow-up in ARPE-19 cells lacking ecDHFR.YFP [9]: fluorescent false positives

Nc1nc(N)c2nc(CNc3ccc(C(=O)N[C@@H](CCC(=O)O)C(=O)O)cc3)cnc2n1 [aminopterin]
inhibition of hsDHFR activity (recombinant hsDHFR): completely inhibited | stabilization of ecDHFR after washout (ecDHFR.YFP): continued to stabilize ecDHFR | dose-dependent stabilization of ecDHFR.YFP [1]: readily stabilized

Nc1nc(N)c2nc(-c3ccccc3)c(N)nc2n1 [Triamterene]
fold change in bioluminescent signal, liver [2]: 1.9 ± 0.2 fold | inhibition of hsDHFR activity (recombinant hsDHFR): intermediately inhibited | fold change in luminescence after treatment, eye [5]: 3.1 ± 0.6 fold

COc1ccc(COc2ccc(Cc3cnc(N)nc3N)cc2OC)cc1 [GW2580]
reduction of Iba1(+) microglia, inner retina (Iba1(+) microglia): 33% | reduction of Iba1(+) microglia, outer retina (Iba1(+) microglia): 32% | MIC (RN4220 S. aureus; LB broth, endpoint 19-24 h): ~ 50 μM | fold change in luminescence after treatment, eye [5]: 8.6 ± 1.7 fold

[H]/N=C(\N/C(=N/[H])Nc1ccc(Cl)cc1)NC(C)C [proguanil]
stabilization of ecDHFR.YFP [1]: no stabilization capabilities

COc1cc(C)c(Cc2cnc(N)nc2N)cc1OC [ormetoprim]
"Off" kinetics, time after removal (ecDHFR.YFP; 0.1 μM): 2 to 4 h | "Off" kinetics compared with TMP (ecDHFR.YFP): noticeably quicker | MIC [8]: ~16.6 µM (≈ 4.55 µg/mL)

Nc1ccnc(N)n1 [2,4-DAP, 2,4-diaminopyrimidine]
stabilization of ecDHFR.YFP [1]: insufficient to stabilize
